Key:
primary human T-cells = test: Proliferation assay (5 days, CellTiter-Glo, CD3-stimulated T-cells); format: cell-based
Summary of the method: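 Expanded primary human T-cells, 100 k cells/well, were stimulated with plate-coated CD3 antibody (donor-titrated) and given compound in a 5 or 6 pt dose response from 20 μM or 10 μM final top, 0.2% DMSO final. ATP was read by CellTiter-Glo after 5 days. EC50 and Emax were reported as % of 20 μM reference compound A1.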

DGK α kinase = target: T1, DGK α kinase (Homo sapiens, UniProt P23743); test: DGKalpha kinase ADP Glo assay run by Reaction Biology Corp.; format: biochemical; details: 2 nM kinase, 50 µM ATP, 500 μM DLG, 10-dose duplicate
T1 construct: purchased Reaction Biology Corp. (contract assay service)
Method: (§1) DGK α and ζ kinases use ATP to phosphorylate the substrate 1,2-dilauroyl-sn-glycerol (DLG). ATP is converted to ADP as a result of this enzymatic reaction.
(§2) After the kinase reaction, an ATP-depletion reagent is added to terminate the kinase reaction and deplete any remaining ATP, leaving only ADP. Second, a detection reagent is added to simultaneously convert ADP to ATP and allow the newly synthesized ATP to be converted to light using a coupled luciferase/luciferin reaction.
(§3) DGK α and ζ kinase ADP Glo assays were ran by Reaction Biology Corp., 1 Great Valley Parkway, Suite 2, Malvern, 19355, PA, USA. Information provided by the service provider are the following: DGK α and ζ kinases were used at 2 nM final concentration. Reactions were carried out at 50 µM ATP. 500 μM of the substrate DLG (Dilauroyl-sn-glycerol) was used.

[1] = target: T2, DGKζ (hDGKzeta(1-928)-N-His) (Homo sapiens, UniProt Q13574); test: In vitro DGK inhibition assay, DGKzeta ADP Glo (in house); format: biochemical; details: 2 nM DGKζ, 50 μM ATP, 125 uM DLG in liposomes, 1 hour reaction
T2 construct: hDGKzeta(1-928)-N-His; His (N); made in house; host or cells: Sf21 insect cells (baculovirus)
Method: as §2, with “DGKα and ζ kinases use ATP to phosphorylate the substrate 1,2-dilauroyl-sn-glycerol (DLG, incorporated in the liposomes). ATP is converted to ADP as a result of this enzymatic reaction. After” for “After”
(§4) Full length DGKα and ζ were expressed in Sf21 insect cells by infecting the cells with the baculovirus stock at MOI of 2. Purification of both enzymes was performed as previously described by Takahashi et al., PeerJ, 2018 (Takahashi, D.; Sakane, F. Expression and purification of human diacylglycerol 5 kinase alpha from baculovirus-infected insect cells for structural studies. PeerJ2018, 6, No. e5449).
(§5) A concentrated liposome solution was prepared in assay buffer without DTT and BSA: 2 mM of DLG in 21 mM of total liposome (2 mM DLG/8 mM PS/11 mM PC). The reaction mixtures contain the assay buffer with a final DLG concentration of 125 uM ATP concentrations of 25 μM (for DGKA assay) or 50 μM (for DGKZ assay). The reactions were started by addition of DGK α and ζ kinases at 4 nM and 2 nM final concentrations, respectively. After 1 hour reaction, the amount of ADP formed was detected with the ADP-Glo kinase assay (Promega) according to the manufacturer instructions. Compounds were added in 11-points dose response, starting at […], 1:3 dilutions, with a final DMSO concentration of 2%. The multidrop combi was used as a liquid handler and luminescence was read with 0.5 s by the envision reader (PE).

[2] = target: T3, DGKα (hDGKalpha(1-735)-N-His) (Homo sapiens, UniProt P23743); test: In vitro DGK inhibition assay, DGKalpha ADP Glo (in house); format: biochemical; details: 4 nM DGKα, 25 μM ATP, 125 uM DLG in liposomes, 1 hour reaction
T3 construct: hDGKalpha(1-735)-N-His; His (N); made in house; host or cells: Sf21 insect cells (baculovirus)
Method: as §2, with “DGKα and ζ kinases use ATP to phosphorylate the substrate 1,2-dilauroyl-sn-glycerol (DLG, incorporated in the liposomes). ATP is converted to ADP as a result of this enzymatic reaction. After” for “After”
as §4, §5

DGK ζ kinase = target: T4, DGK ζ kinase (Homo sapiens, UniProt Q13574); test: DGKzeta kinase ADP Glo assay run by Reaction Biology Corp.; format: biochemical; details: 2 nM kinase, 50 µM ATP, 500 μM DLG, 10-dose duplicate
T4 construct: purchased Reaction Biology Corp. (contract assay service)
Method: as §1, §2, §3

T2 sequence (Q13574 whole entry): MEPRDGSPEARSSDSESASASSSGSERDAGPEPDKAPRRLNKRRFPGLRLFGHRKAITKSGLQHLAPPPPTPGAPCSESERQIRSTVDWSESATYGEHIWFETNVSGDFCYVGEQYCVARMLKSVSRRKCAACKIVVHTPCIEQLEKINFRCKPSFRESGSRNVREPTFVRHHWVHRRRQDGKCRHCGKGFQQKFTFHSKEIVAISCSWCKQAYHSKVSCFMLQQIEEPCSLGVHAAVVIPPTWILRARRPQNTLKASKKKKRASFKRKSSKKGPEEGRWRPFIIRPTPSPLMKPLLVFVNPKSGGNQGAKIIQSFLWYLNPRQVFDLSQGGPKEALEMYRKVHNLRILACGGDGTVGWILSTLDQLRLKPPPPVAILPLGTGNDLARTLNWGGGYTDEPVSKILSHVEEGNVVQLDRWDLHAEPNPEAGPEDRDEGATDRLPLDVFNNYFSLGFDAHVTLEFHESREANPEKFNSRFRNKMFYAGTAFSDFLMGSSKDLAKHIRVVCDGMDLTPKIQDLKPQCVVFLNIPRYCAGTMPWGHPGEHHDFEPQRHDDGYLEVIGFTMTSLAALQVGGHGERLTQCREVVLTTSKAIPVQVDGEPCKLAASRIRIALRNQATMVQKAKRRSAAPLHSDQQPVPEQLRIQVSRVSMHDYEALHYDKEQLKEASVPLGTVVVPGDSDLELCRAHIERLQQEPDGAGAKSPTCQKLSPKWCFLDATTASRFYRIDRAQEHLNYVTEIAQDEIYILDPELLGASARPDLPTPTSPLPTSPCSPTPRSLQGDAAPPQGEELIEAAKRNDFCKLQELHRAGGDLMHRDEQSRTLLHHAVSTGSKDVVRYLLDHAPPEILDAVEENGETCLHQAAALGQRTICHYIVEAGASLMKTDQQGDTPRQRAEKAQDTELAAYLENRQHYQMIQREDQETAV
T4 sequence (Q13574 whole entry): as above
T1 sequence (P23743 whole entry): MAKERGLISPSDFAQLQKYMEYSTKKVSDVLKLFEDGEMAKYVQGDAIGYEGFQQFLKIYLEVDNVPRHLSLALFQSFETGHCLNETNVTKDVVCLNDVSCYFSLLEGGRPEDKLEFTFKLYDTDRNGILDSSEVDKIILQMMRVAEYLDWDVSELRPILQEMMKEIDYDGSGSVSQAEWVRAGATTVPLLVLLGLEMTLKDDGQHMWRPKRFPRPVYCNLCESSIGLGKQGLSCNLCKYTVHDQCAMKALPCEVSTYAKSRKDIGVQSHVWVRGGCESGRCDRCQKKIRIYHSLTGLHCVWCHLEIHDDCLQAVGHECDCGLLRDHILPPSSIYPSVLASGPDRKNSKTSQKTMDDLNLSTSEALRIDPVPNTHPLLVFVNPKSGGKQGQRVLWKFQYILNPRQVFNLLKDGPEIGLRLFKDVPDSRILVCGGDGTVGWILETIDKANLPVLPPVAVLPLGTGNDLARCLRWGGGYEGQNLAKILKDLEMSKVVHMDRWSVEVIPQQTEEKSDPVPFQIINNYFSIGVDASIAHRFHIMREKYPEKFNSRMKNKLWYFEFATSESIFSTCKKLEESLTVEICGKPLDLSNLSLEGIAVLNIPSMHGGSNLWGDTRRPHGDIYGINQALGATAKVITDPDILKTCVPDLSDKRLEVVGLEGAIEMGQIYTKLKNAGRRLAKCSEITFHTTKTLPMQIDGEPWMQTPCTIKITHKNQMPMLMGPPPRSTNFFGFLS
T3 sequence (P23743 whole entry): as above

- IC50 (DGK α kinase): 227 nM
- IC50 [1]: 3.1 µM
- IC50 [2]: 17.8 µM
- IC50 (DGK ζ kinase): 365 nM
SMILES: CN1CCCC(F)(c2nnc(-c3ccc4c(c3)N(Cc3ccc(-c5noc(C(F)(F)F)n5)cc3)C(=O)[C@@H](N)CS4(=O)=O)o2)C1 (stereo partly drawn) [Example 49, (3R)-3-amino-7-[5-(3-fluoro-1-methyl-3-piperidyl)-1,3,4-oxadiazol-2-yl]-1,1-dioxo-5-[[4-[5-(trifluoromethyl)-1,2,4-oxadiazol-3-yl]phenyl]methyl]-2,3-dihydro-1λ^6,5-benzothiazepin-4-one]
- Emax proliferation (% activation) (primary human T-cells; CD3 condition, normalised to DMSO (neutral) and 20 μM reference compound A1 = 100%): 86 % activation
- EC50 (primary human T-cells; Homo sapiens, T-cell, 120 h, CD3-stimulated primary human T-cells, 5 days, CellTiter-Glo, fitted sigmoidal curve, read-out: Tcell Proliferation CD3 EC50): 122 nM

— US20260138976A1 (Hoffmann-La Roche Inc., priority 2022, published 2026)
